# From patent US9593144B2, “FPR1 antagonist derivatives and use thereof” (CHANG GUNG UNIVERSITY, priority 2014, dated 2017)
# Read-outs that look alike come from different tables or passages of the source. Square brackets hold non-standard residues; d marks the D form. Peptide text beside a SMILES is read from it. * marks the point of attachment. Bz = O=C(c1ccccc1)*
# System: human neutrophils
# Experiment: cells
# Format: cell-based
# Conditions: Neutrophil, mean ± SEM
# Experimental: Degranulation of azurophilic granules was determined by elastase release as described above. Experiments were performed using MeO-Suc-[…]-nitroanilide as the elastase substrate. […] Results are expressed as the percentage of elastase release in the drug-free control group, DMSO. Tables 5 and 6 explore whether there is an anti-inflamatory effect in the dipeptide derivatives. Because ferricytochrome c cannot penetrate cell membranes, it reacts with superoxide anion extracellularly. Also, there are absorptive reactions at 550 nm, and differences among the absorptive reactions can be used to evaluate the influence on the release of superoxide anion. The elastase is released by degranulation as the neutrophil is activated. Tables 5 and 6 use the substrate, MeO-Suc-[…]-nitroanilide, with the specificity for reacting with the elastase so as to evaluate the influence of the candidate compound on the elastase release. Blood was taken from healthy human donors (20-32 years old) by venipuncture, following a protocol approved by the Institutional Review Board at Chang Gung Memorial Hospital. Neutrophils were isolated by a standard method of dextran sedimentation prior to centrifugation in a Ficoll Hypaque gradient and the hypotonic lysis of erythrocytes. […] The degranulation of azurophilic granules was determined by elastase release as described above. Experiments were performed using MeO-Suc-[…]-nitroanilide as the elastase substrate. Briefly, after supplementation with MeO-Suc-[…]-nitroanilide ([…] neutrophils (6×10^5 ml^-1) were equilibrated at 37° C. for 2 min and incubated with drugs for 5 min. […] The results are expressed as the percentage of elastase release in the drug-free control group.
structure (smiles),measurement,setting,value
"COC(=O)[C@@H](Cc1ccccc1)NC(=O)[C@H](Cc1c[nH]c2ccccc12)NC(=O)c1ccccc1 [Compound 3, N—(N-Benzoyl-L-tryptophanyl)-D-phenylalanine methyl ester] (Bz-Trp-[dF]-OMe)",IC50,"WKYMVm, n = 4 or 8, Table 6, read-out: Elastase release WKYMVm IC50",5220 ± 700 nM
same,IC50,"WKYMVm/CB, n = 3, Table 4, read-out: WKYMVm/CB NE release (IC50)",4610 ± 720 nM
same,IC50,"fMLF, n = 4 or 8, Table 6, read-out: Elastase release fMLF IC50",570 ± 70 nM
same,IC50,"fMLF/CB, n = 3, Table 4, read-out: fMLF/CB NE release (IC50)",600 ± 70 nM
same,IC50,"fMLP/CB, n = 3, Table 1, read-out: Anti-inflammation NE release (IC50)",600 ± 70 nM
